Assay results from US8067583B2, “Method for synthesizing furanosteroids” (Trustees of Dartmouth College, priority 2006, dated 2011).
Blank lines part the entries; values can stand above or below the compound they belong to.

Legend:
[1] = storage stability of isolated isomers; format: physicochemical
Description: A solution of 50.0 mg (0.136 mmol, 1.0 eq) of aldehyde 18 in 13.6 mL of dry CH2Cl2 was stirred in a 25 mL round bottom flask at room temperature under argon. To this solution was slowly added 271 μL (1.0 M in CH2Cl2, 0.271 mmol, 2.0 eq) of TiCl4. […] The solution was then diluted with CH2Cl2 and washed with H2O. The aqueous portion was then extracted three times with CH2Cl2. The combined organic fractions were then dried over MgSO4 and concentrated. Purification via silica gel chromatography (hexane/EtOAc) gave 20.4 mg (59%) of the syn-isomer 19-Syn and 5.4 mg (16%) of the anti-isomer 19-Anti as unstable brown oils. […] The decomposition was of a general nature and none of the stable, known retro-aldol product was observed.

PI3-kinase = settings: read-out: IC50, inhibitor of PI3-kinase; cited from earlier work
PI3K-Beta = PI3K-Beta (Homo sapiens, UniProt P42338); assay: activity against PI3K-Beta; format: biochemical
PI3K-Beta, sequence (P42338 whole entry, species assumed): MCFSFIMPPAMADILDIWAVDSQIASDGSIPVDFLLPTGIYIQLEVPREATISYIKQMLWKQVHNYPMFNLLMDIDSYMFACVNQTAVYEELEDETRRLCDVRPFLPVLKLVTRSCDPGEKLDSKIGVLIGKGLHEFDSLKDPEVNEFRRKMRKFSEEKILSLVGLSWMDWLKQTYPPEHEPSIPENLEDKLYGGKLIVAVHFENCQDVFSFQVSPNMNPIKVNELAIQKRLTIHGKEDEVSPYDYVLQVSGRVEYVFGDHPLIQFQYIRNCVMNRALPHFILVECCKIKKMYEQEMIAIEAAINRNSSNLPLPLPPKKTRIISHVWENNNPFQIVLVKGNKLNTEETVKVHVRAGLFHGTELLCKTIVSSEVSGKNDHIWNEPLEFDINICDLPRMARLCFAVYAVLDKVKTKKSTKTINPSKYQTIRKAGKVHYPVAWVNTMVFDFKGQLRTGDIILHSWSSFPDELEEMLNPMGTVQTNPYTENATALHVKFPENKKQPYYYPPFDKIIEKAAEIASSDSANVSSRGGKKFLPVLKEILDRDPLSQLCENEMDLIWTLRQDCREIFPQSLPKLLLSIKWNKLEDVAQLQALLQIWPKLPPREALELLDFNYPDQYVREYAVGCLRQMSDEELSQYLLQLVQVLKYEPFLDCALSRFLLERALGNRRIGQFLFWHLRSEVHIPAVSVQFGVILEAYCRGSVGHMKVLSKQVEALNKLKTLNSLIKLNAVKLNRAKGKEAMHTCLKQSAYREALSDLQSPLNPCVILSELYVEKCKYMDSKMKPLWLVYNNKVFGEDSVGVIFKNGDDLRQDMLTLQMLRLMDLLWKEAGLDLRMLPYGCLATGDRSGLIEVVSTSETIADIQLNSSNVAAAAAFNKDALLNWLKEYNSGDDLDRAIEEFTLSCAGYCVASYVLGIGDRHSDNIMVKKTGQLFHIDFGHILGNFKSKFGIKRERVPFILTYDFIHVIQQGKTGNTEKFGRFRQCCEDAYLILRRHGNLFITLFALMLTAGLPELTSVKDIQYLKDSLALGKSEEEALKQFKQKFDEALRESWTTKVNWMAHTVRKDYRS
PI3K-Beta, sequence (P27986 whole entry partner, species assumed): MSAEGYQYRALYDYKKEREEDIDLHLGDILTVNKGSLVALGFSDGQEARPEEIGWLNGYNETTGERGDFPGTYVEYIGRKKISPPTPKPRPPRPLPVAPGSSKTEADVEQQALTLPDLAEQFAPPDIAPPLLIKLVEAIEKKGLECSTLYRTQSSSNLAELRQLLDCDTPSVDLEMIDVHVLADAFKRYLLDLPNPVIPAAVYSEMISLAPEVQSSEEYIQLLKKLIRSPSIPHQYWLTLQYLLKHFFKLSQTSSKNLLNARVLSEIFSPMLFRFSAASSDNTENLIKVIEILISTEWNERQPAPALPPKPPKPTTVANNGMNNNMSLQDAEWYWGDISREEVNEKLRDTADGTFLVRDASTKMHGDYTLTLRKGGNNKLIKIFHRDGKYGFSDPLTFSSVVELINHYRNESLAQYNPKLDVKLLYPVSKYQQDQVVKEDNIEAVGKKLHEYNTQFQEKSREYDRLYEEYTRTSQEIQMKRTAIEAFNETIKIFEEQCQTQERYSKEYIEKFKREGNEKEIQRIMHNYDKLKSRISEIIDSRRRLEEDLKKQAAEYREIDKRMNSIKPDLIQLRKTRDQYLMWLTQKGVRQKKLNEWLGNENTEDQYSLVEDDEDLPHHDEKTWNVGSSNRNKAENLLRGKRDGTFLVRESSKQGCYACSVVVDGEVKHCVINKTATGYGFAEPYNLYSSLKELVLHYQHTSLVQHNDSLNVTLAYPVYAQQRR
Description: Novel furanosteroids produced according to the present method can be screened for biological activity using any conventional method. For example, PI3 kinase assays are disclosed by Yuan, et al. ((2005) Bioconjugate Chem, 16 (3): 669-675) and Fruman, et al. ((1999) Science 283:393-7). Assays for monitoring the assembly of peptide-MHC class II complexes (Song, et al. (1997) International Immunology 9:1709-1722) and mast cell exocytosis (Marquardt, et al. (1996) J. Immunol. 156:1942-1945) are known in the art as are assays for monitoring cell proliferation.

[2] = target: mammalian Polo-like kinase (Homo sapiens, UniProt P53350); settings: cited from earlier work
mammalian Polo-like kinase, sequence (P53350 whole entry): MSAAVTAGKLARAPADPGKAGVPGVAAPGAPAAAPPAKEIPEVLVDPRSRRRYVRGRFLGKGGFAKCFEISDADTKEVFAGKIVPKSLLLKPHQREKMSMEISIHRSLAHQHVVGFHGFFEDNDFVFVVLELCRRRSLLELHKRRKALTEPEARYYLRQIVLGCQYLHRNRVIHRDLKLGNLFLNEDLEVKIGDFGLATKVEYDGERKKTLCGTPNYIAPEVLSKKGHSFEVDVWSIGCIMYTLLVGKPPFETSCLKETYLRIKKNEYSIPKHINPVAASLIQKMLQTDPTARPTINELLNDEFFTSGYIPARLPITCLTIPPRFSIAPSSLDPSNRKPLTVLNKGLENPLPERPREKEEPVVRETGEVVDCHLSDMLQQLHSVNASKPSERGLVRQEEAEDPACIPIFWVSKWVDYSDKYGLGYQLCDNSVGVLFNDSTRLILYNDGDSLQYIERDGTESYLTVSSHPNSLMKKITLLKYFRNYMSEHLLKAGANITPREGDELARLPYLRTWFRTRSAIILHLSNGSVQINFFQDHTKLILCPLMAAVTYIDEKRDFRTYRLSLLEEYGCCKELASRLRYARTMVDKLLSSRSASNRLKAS

SMILES: CC12c3ccccc3C(=O)c3occ(c31)CC[C@H]2O (stereo in doubt) [Compound 19-Syn, 1-Hydroxy-10b-methyl-1,2,3,10b-tetrahydro-5-oxa-acephenanthrylen-6-one]
- stability in a refrigerator ([1]; refrigerator): stable in a refrigerator for several weeks
- stability at room temperature ([1]; room temperature, prolonged periods, isolated brown oils): Neither isomer was stable at room temperature for prolonged periods

SMILES: COC[C@H]1OC(=O)c2coc3c2[C@@]1(C)C1=C(C3=O)[C@@H]2CC[C@H](O)[C@@]2(C)C[C@H]1OC(C)=O [17β-OH wortmannin]
- IC50 (PI3-kinase): 0.5 nM

- activity against PI3K-Beta (PI3K-Beta): sub-micromolar
SMILES: C[C@]12COC(=O)c3coc(c31)C(=O)c1ccccc12 [Compound 47]

SMILES: COC[C@H]1OC(=O)c2coc3c2C1(C)C1=C(C3=O)[C@@H]2CCC(=O)C2(C)C[C@H]1OC(C)=O (some centres unmarked) [wortmannin]
- inhibition of mammalian Polo-like kinase [2]: inhibit
